{"source": "paper PMC6764124", "about": "(Journal of Neuroinflammation, 2019)", "key": {"[1]": {"test_system": "HIV-1baL", "experiment": "Antiviral activity in primary human macrophages (p24 ELISA)", "type": "cell-based", "conditions": "for EC90: read-out: EC90 inhibition of HIV replication in macrophages", "text": "Mϕ and monocytes were isolated as previously described. […] Cells were maintained for 6 days before viral quantification (p24-ELISA). For in vitro activation marker studies, CD14^+ monocytes or fully differentiated (CD14^−/CD11b^+) Mϕ were used. Monocytes were used as a model to mimic HIV-induced activation that transpires in the periphery, wherein presence or internalization of HIV-1 in monocytes confers activation (CD14^+/CD16^+) and subsequent trafficking of “Trojan horse” monocytes across and within the BBB [11, 12]. The method used to differentiate Mϕ (CD14^−/CD11b^+) has been validated by our group to ensure that these cells are no longer expressing monocyte marker CD14 and are mature Mϕ (CD11b expression). Mϕ or monocytes were treated with various concentrations of drug prior to infection (HIV-1baL) and maintained for 3 days before quantification of HLA-DR, CD163 (Mϕ), or CD14/CD16 (monocytes; Miltenyi Biotec, San Diego, CA). Mϕ and monocytes were treated with various concentrations of drug for 6 days and stained with Near-IR live/dead dye and quantified by FACS. Antiviral potency was calculated as previously described."}, "[2]": {"test_system": "HIV replication in primary PBM cells", "experiment": "Antiviral activity in activated peripheral blood mononuclear (PBM) cells", "type": "cell-based, HIV-1", "conditions": "for EC90: read-out: EC90 inhibition of HIV replication in PBM cells"}, "[3]": {"test_system": "J-lat T cells", "experiment": "TNF-α-induced reactivation of latent HIV-1 in J-lat T cells", "type": "cell-based, human"}, "[4]": {"test_system": "latent HIV-1 in primary human Mϕ", "experiment": "PMA-induced reactivation of HIV-1 from latent primary human macrophages (p24 ELISA)", "type": "cell-based", "experimental": "Primary human Mϕ were prepared as described above and infected with an MOI of 0.5 with HIV-1BaL for 4 h prior to removal of virus and culture in virus-free medium. Supernatants were collected every 5 days, and extracellular p24 production was monitored (p24 ELISA, ABL, Inc.). Fresh culture medium was added to cultures every 5 days as supernatants were collected for p24 analysis. […] After 24 h post-reactivation, cellular supernatants were collected, and extracellular reactivated p24 was quantified (p24 ELISA). Percent inhibition of reactivation was calculated versus no drug controls, and EC50/90 were calculated as previously described."}, "[5]": {"test_system": "non-dividing p24+ primary CD4+ T cells", "experiment": "Frequency of non-dividing p24+ latent primary CD4+ T cells in vitro", "type": "cell-based, human"}, "[6]": {"test_system": "HLA-DR and CD163 in primary human Mϕ", "experiment": "HIV-induced upregulation of activation markers HLA-DR and CD163 in primary human macrophages", "type": "cell-based", "text": "Mϕ and monocytes were isolated as previously described. […] Cells were maintained for 6 days before viral quantification (p24-ELISA). For in vitro activation marker studies, CD14^+ monocytes or fully differentiated (CD14^−/CD11b^+) Mϕ were used. […] The method used to differentiate Mϕ (CD14^−/CD11b^+) has been validated by our group to ensure that these cells are no longer expressing monocyte marker CD14 and are mature Mϕ (CD11b expression). […] Miltenyi Biotec, San Diego, CA). Mϕ and monocytes were treated with various concentrations of drug for 6 days and stained with Near-IR live/dead dye and quantified by FACS. Antiviral potency was calculated as previously described. […] Cells were harvested and stained for CD14^+ (FITC)/CD16^+ (APC) to quantify HIV-induced activation or impact of drugs on block of these markers."}, "[7]": {"experiment": "Pharmacokinetics of baricitinib in mouse plasma and brain after single SC dose (LC-MS/MS)", "type": "in vivo, SCID mice", "conditions": "for Cmax: SCID mice", "experimental": "One, 4, 8, and 24 h after drug inoculation, mice were sacrificed and whole blood was collected immediately followed by cardiac perfusion with PBS prior to the extraction of brain tissues. After brain extraction, posterior fossa (the cerebellum and brainstem) was taken, snap frozen, and stored at − 70 °C. Posterior fossa from each mouse was then weighed and homogenized in a mixed water and methanol (2:1) solution. The homogenates were then centrifuged, and the pellet discarded. The supernatant was dried by evaporation using nitrogen gas, resuspended in 1 mL water, and put through Isolute-XL C18 columns (Biotage, Uppsala, Sweden). Drug was then eluted with acetonitrile and subsequently dried. […] Chromatographic separation was performed by Ultimate 3000 LC system (Thermo Scientific, MA, USA), on a Kinetex XB-C18 column (50 × 2.1 mm) with a 2.6-μm particle size (Phenomenex, CA, USA). The mobile phase A consisted of 0.1% formic acid in water, and the mobile phase B consisted of methanol. Isocratic elution was used for the separation with mobile phase A:B at 25:75 (v/v). The column was maintained at ambient temperature. The flow rate was maintained at 250 μL/min, and a 20-μL injection was used. An API5000 triple quadrupole mass spectrometer (ABsciex, MA, USA) was used for detection, with electrospray ionization in positive ion mode. The mass spectrum parameters for the analytes were set as follows: ion spray voltage, 5500 V; curtain gas, 25 psi; ion source gas 1, 40 psi; ion source gas 2, 40 psi; source temperature, 500 °C; and collision gas, 5 psi. […] Analyst software version 1.5.2 was used to operate the mass spectrometer and to perform data analysis. […] The calibration curves had r^2 value greater than 0.99."}, "[8]": {"test_system": "HAND mice (IC injection of HIV-infected human MDM)", "experiment": "Brain HAND markers by flow cytometry in SCID mouse HAND model", "type": "in vivo", "conditions": "day 14, versus untreated HAND mice", "experimental": "Four-week-old B6.CB17-Prkdc^scid/SzJ (SCID) male mice were injected IC with 30 μL of HIV-infected MDMs suspended in 0.9% saline, directly into the frontal lobe of the right hemisphere. The injection was done free-handed (without a stereotactic device). The injection is performed with a syringe that allows a very slow rate of infusion. We have verified the injection site with a histological staining in our previously published works, which is in the basal ganglia as described in Koneru et al.. Injections were performed on day 0 (D0). Treatments (baricitinib or saline) were given subcutaneously (SC).\nFourteen days after IC MDM inoculation, mice were sacrificed and brain samples were harvested and placed in a tissue preservative solution (Miltenyi, Bergisch Gladbach, Germany). Samples were then dissociated using a commercial kit and a gentleMacs dissociator (Miltenyi) into single cell suspensions. Cells were then washed in 2% BSA/PBS buffer and incubated with the following: (1) anti-murine CD45-Vioblue (1:10 dilution) and anti-murine MHCII primary antibody (1:500) followed by APC conjugated secondary antibody (1:500 dilution), or isotype-only controls; (2) GFAP-FITC (1:750 dilution 1′ antibody and 1:1000 2′ 488 (FITC) antibody (Abcam, Cambridge, UK); or (3) human (non-murine cross-reactive) CD163-APC (Miltenyi Biotec) for 30 min (Sigma Aldrich, St. Louis, MO). Cells were washed twice in 2% BSA/PBS and fixed with 2% paraformaldehyde for 15 min. Cells were washed twice in 2% BSA/PBS and analyzed for double positive cells by flow cytometry (Macs Quant analyzer and MacsQuantify software, Miltenyi Biotec).\nTotal events were collected using forward scatter (FSC) and side scatter […] followed by doublet discrimination (FSC-area versus FSC-height) using a MacsQuant flow cytometer (Miltenyi). No primary FSC/SSC gate was established, to allow all events to be collected within the heterogeneous size and granularity of the brain cells. GFAP^+ events were collected with gates and voltages established using 2′ antibody only. GFAP^+ low granularity gate was established with events up to one-log shift from negative population, and GFAP^+ high granularity (activated astrocytes) was established with events greater than two-log shift from negative population. MHCII and CD45 (mouse mononuclear phagocytes) expression were quantified based on quadrant gating for MHCII^+/CD45^−, CD45^+MHCII^−, MHCII^+/CD45^+, or MHCII^−/CD45^−. CD163^+ events (human Mϕ) were collected with gates established from isotype-only controls. Percentages and total events were collected."}, "[9]": {"set-up": "method as in Olumiant.com", "conditions": "at concentrations more than 2 logs above concentrations in the murine model; ref Olumiant.com; cited from earlier work"}, "[10]": {"test_system": "HIV-infected individuals", "set-up": "method as in earlier work", "conditions": "cited from earlier work"}, "[11]": {"test_system": "HIVE mouse model", "set-up": "method as in PMID 26851503", "conditions": "cited from earlier work"}, "[12]": {"test_system": "latent HIV in T cells", "set-up": "method as in PMID 29267399", "conditions": "cited from earlier work"}}, "note": "Like-named read-outs stand apart in the source and are kept apart here.", "data": [{"smiles": "Nc1ccn([C@@H]2CS[C@H](CO)O2)c(=O)n1", "note": "[3TC]", "values": [{"measurement": "EC50", "setting": "[1]; primary human Mϕ, read-out: EC50 inhibition of HIV replication in macrophages", "value": 100, "unit": "nM"}, {"measurement": "EC90", "setting": "[1]; primary human Mϕ", "value": 1200, "unit": "nM"}, {"measurement": "EC50", "setting": "[2]; primary activated PBM cells, read-out: EC50 inhibition of HIV replication in PBM cells", "value": 10, "unit": "nM"}, {"measurement": "EC90", "setting": "[2]; primary activated PBM cells", "value": 900, "unit": "nM"}, {"measurement": "Effect on TNF-a induced reactivation (dose response, Figure S1 C)", "setting": "[3]", "value": "did not have any effect"}, {"measurement": "Effect on PMA induced reactivation (dose response, Figure S1 D)", "setting": "[4]; macrophages", "value": "did not have any effect"}, {"measurement": "Effect on frequency of non-dividing latent CD4 T cells (dose response, Figure S1 E)", "setting": "[5]", "value": "did not have any effect"}, {"measurement": "Effect on HIV-induced activation markers HLA-DR/CD163 double positive macrophages (dose response, Figure S1 F)", "setting": "[6]", "value": "did not have any effect"}]}, {"smiles": "CCS(=O)(=O)N1CC(CC#N)(n2cc(-c3ncnc4[nH]ccc34)cn2)C1", "note": "[Baricitinib]", "values": [{"measurement": "Detection in plasma and brain samples", "setting": "[7]; 1, 4, 8, 24 h after 10 or 50 mg/kg SC, limit of detection 5.5 ng/mL", "value": "detected in all plasma and brain samples except for 24 h plasma samples at 10 mg/kg"}, {"measurement": "Blood-brain barrier penetration", "setting": "[7]; 10 and 50 mg/kg SC, mouse", "value": "can penetrate mouse BBB"}, {"measurement": "Cmax", "setting": "[7]; mouse, brain (posterior fossa: cerebellum and brainstem), 10 mg/kg single SC, read-out: Cmax in the brain", "value": "~40", "unit": "ng/g"}, {"measurement": "Cmax", "setting": "[7]; mouse, brain (posterior fossa: cerebellum and brainstem), 50 mg/kg single SC, read-out: Cmax in the brain", "value": "~75", "unit": "ng/g"}, {"measurement": "Cmax", "setting": "[7]; mouse, plasma, 10 mg/kg single SC, read-out: Cmax in plasma", "value": "~200", "unit": "ng/mL"}, {"measurement": "Cmax", "setting": "[7]; mouse, plasma, 50 mg/kg single SC, read-out: Cmax in plasma", "value": "~1400", "unit": "ng/mL"}, {"measurement": "Activated astrocytes (GFAP+; astrogliosis) in brain", "setting": "[8]; 10 mg/kg qd SC", "value": "reduced"}, {"measurement": "Percentage of activated mouse mononuclear phagocytes (MHCII/CD45 double positive cells) in brain", "setting": "[8]; 10 mg/kg qd SC", "value": "significantly reduced"}, {"measurement": "Activated p24+ human Mϕ in brain", "setting": "[8]; 50 mg/kg qd SC (high dose)", "value": "significantly reduced"}, {"measurement": "Activated astrocytes (GFAP+; astrogliosis) in brain", "setting": "[8]; 50 mg/kg qd SC", "value": "reduced"}, {"measurement": "Percentage of activated mouse mononuclear phagocytes (MHCII/CD45 double positive cells) in brain", "setting": "[8]; 50 mg/kg qd SC", "value": "significantly reduced"}, {"measurement": "EC90", "setting": "[1]; Human immunodeficiency virus 1, Macrophage", "value": "2100 ± 300", "unit": "nM"}, {"measurement": "EC90", "setting": "[2]; Human immunodeficiency virus 1, PBMC", "value": "400 ± 70", "unit": "nM"}, {"measurement": "EC90", "setting": "[3]; Homo sapiens, T-cell, read-out: EC90 inhibition of TNF-α induced reactivation", "value": "1100 ± 300", "unit": "nM"}, {"measurement": "EC90", "setting": "[4]; Macrophage, latent primary human macrophages, 50 ng/mL PMA, 24 h, read-out: EC90 inhibition of PMA induced reactivation", "value": "700 ± 100", "unit": "nM"}, {"measurement": "EC90", "setting": "[5]; Homo sapiens, non-dividing p24+ primary CD4+ T cells, read-out: EC90 reduction of non dividing latent CD4 T cells", "value": "700 ± 80", "unit": "nM"}, {"measurement": "EC90", "setting": "[6]; Macrophage, primary human macrophages, read-out: EC90 inhibition of HIV-induced HLA-DR and CD163", "value": 1200, "unit": "nM"}, {"measurement": "Toxicity", "setting": "[9]", "value": "not toxic"}]}, {"smiles": "N#CC[C@H](C1CCCC1)n1cc(-c2ncnc3[nH]ccc23)cn1", "note": "[ruxolitinib]", "values": [{"measurement": "Safety and tolerability", "setting": "[10]; HIV-infected, cART-suppressed individuals, versus control cART group", "value": "safe and well-tolerated"}, {"measurement": "sCD14 (clinical marker for monocyte activation)", "setting": "[10]; ruxolitinib arm versus cART group", "value": "significant reduction"}, {"measurement": "Effect on HIVE in mouse model", "setting": "[11]", "value": "ameliorates HIVE"}, {"measurement": "Reactivation of latent HIV from T cells", "setting": "[12]", "value": "block the reactivation"}]}, {"smiles": "C[C@@H]1CCN(C(=O)CC#N)C[C@@H]1N(C)c1ncnc2[nH]ccc12", "note": "[tofacitinib]", "values": [{"measurement": "Reactivation of latent HIV from T cells", "setting": "[12]", "value": "block the reactivation"}]}]}
